Test results taken from US10822366B2, “Lincosamide derivatives, preparation and use thereof as antimicrobial agent” (MIKROBIOLOGICKY USTAV AV CR, V. V. I., priority 2017, dated 2020).
In brackets after ≈: the same amount, converted by molar mass.

How the values were obtained:
[1] = system: Kocuria rhizophila; experiment: Disc diffusion test (antibacterial activity); format: cell-based; conditions: paper discs (diameter 5 mm) saturated with 5 nmol compound; LB agar covered with lincomycin sensitive test strain Kocuria rhizophila; 37° C., 20 h
Description: Filtration paper discs (geometric diameter 5 mm) saturated with 5 nmol of tested novel lincosamide compounds were placed on LB agar plates (tryptone 10 g, yeast extract 5 g, NaCl 10 g, supplemented with distilled water to 1000 mL, pH 7.5; agar 15 g) continuously covered with culture of the lincomycin sensitive test strain Kocuria rhizophila. The plates were incubated at 37° C. for 20 h.

[2] = system: K. rhizophila; experiment: Minimum inhibitory concentration determination (EUCAST method); format: cell-based, Kocuria rhizophila; conditions: K. rhizophila in LB medium, concentration range 25-1600 nM tested, 24 h at 37° C.
Description: Minimum inhibitory concentrations were determined using the previously published method (European Committee for Antimicrobial Susceptibility Testing (EUCAST), Clin Microbiol Infect (2003), 9 (8), ix-xv). 5 μL suspension (McFarland scale 0.5) of K. rhizophila bacterial culture was inoculated into 1 mL of LB medium containing test substances of the desired concentration (a concentration range of 25-1600 nM was tested). The cultures were incubated for 24 h at 37° C.

MIC ([2]; Kocuria rhizophila) | MIC [2] | Compound | Disc diffusion test: size of inhibition zones [1]
0.1 µM (≈ 0.0571 µg/mL) |  | CCC[C@@H]1C[C@@H](C(=O)N[C@@H]([C@H]2O[C@H](SCCOC(=O)c3ccccc3O)[C@H](O)[C@@H](O)[C@H]2O)[C@@H](C)OC)N(C)C1 | 28 mm
0.1 µM (≈ 0.0557 µg/mL) |  | CCC[C@@H]1C[C@@H](C(=O)N[C@@H]([C@H]2O[C@H](SCCOC(=O)c3ccccc3O)[C@H](O)[C@@H](O)[C@H]2O)[C@@H](C)O)N(C)C1 | 29 mm
 | 1.6 µM (≈ 0.846 µg/mL) | CO[C@H](C)[C@@H](NC(=O)[C@@H]1CCCN1C)[C@H]1O[C@H](SCCOC(=O)c2ccccc2O)[C@H](O)[C@@H](O)[C@H]1O [Celesticetin] | 19 mm
 | 0.4 µM (≈ 0.163 µg/mL) | CCC[C@@H]1C[C@@H](C(=O)N[C@@H]([C@H]2O[C@H](SC)[C@H](O)[C@@H](O)[C@H]2O)[C@@H](C)O)N(C)C1 [Lincomycin] | 24 mm
